Experimental data as given in US11203574B2 (BioCryst Pharmaceuticals, Inc., priority 2014, dated 2021).

How the values were obtained:
[1] = test system: hereditary angioedema (HAE); settings: bradykinin B2 receptor antagonist; cited from earlier work
[2] = target: human plasma kallikrein (Homo sapiens (Human), UniProt P03952); test: Plasma kallikrein activity assay (chromogenic substrate S2302); assay type: biochemical; settings: 2 nM kallikrein, 80 μM S2302, 30° C., pH 7.8; Ki by Cheng-Prusoff equation; values given as ranges; read-out: Ki
human plasma kallikrein, sequence (P03952 whole entry, looked up): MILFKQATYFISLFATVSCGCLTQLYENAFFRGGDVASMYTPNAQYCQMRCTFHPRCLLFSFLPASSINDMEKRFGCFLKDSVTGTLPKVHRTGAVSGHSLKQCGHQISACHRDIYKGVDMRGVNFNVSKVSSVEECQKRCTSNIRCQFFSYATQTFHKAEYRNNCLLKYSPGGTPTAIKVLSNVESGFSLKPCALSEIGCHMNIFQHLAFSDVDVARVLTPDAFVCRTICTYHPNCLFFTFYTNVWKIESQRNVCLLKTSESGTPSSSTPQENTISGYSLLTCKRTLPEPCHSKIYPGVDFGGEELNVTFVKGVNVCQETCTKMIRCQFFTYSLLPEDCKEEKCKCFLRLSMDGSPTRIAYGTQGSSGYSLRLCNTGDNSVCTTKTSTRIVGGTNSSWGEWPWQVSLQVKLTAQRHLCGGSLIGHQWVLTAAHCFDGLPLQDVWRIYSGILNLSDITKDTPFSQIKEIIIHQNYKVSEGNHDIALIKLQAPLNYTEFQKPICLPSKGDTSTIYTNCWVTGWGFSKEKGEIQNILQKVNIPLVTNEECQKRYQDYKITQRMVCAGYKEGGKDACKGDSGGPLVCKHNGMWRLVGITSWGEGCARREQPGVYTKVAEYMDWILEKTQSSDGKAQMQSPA
human plasma kallikrein, sequence (P03952 whole entry partner, looked up): as the sequence (P03952 whole entry, looked up) above

SMILES	treatment of HAE [1]	Ki [2] [nM]
NC(N)=NCCC[C@@H](N)C(=O)N[C@@H](CCCN=C(N)N)C(=O)N1CCC[C@H]1C(=O)N1C[C@H](O)C[C@H]1C(=O)NCC(=O)N[C@@H](Cc1cccs1)C(=O)N[C@@H](CO)C(=O)N1Cc2ccccc2C[C@@H]1C(=O)N1[C@H](C(=O)N[C@@H](CCCN=C(N)N)C(=O)O)C[C@@H]2CCCC[C@@H]21 [Icatibant]	effective in treating HAE	
NCc1cccc(-n2nc(C(F)(F)F)cc2C(=O)Nc2cccc(C(OCC3CCC3)c3ccccc3)c2)c1 (centres unmarked) [75a, 1-(3-(aminomethyl)phenyl)-N-(3-((cyclobutylmethoxy)(phenyl)methyl)phenyl)-3-(trifluoromethyl)-1H-pyrazole-5-carboxamide]		50 to 100
NCc1cccc(-n2nc(C(F)(F)F)cc2C(=O)Nc2cccc(C(O)c3ccccc3)c2F)c1 (centres unmarked) [35g, 1-(3-(aminomethyl)phenyl)-N-(2-fluoro-3-(hydroxy(phenyl)methyl)phenyl)-3-(trifluoromethyl)-1H-pyrazole-5-carboxamide]		50 to 100
Cc1cccc(C(NCC2CC2)c2cccc(NC(=O)c3cc(C(F)(F)F)nn3-c3cccc(CN)c3)c2)c1 (centres unmarked) [110f, 1-(3-(Aminomethyl)phenyl)-N-(3-((cyclopropylmethylamino)(m-tolyl)methyl)phenyl)-3-(trifluoromethyl)-1H-pyrazole-5-carboxamide]		0.1 to 50
COC(CCC1CC1)(c1cccnc1)c1cccc(NC(=O)c2cc(C(F)(F)F)nn2-c2cccc(CN)c2)c1 (centres unmarked) [156c, 1-(3-(aminomethyl)phenyl)-N-(3-(3-cyclopropyl-1-methoxy-1-(pyridin-3-yl)propyl)phenyl)-3-(trifluoromethyl)-1H-pyrazole-5-carboxamide]		0.1 to 50
